Experimental data as given in patent publication US6630125B2, “18F-labeled choline analogs” (priority 2000, dated 2003).
Where two headings read alike, the source gives them in different places.

Columns and labels:
[1] = system: PC-3 human prostate cancer cells; experiment: Accumulation of radiotracers by cultured PC-3 cells; type: cell-based; settings: for Uptake by PC-3 cancer cells, HC-3: 5 mM hemicholinium-3; for accumulation by cultured PC-3 cells compared with other tracers: control conditions; for Uptake by PC-3 cancer cells, Control: 2 hr incubation
Method: The incubation media utilized for the experiments differed according to the cancer cell type (Table 1). On the day of the study, the medium was refreshed using a volume of 1 ml in each well. Cells were incubated in control conditions or with the addition of metabolic and growth factor receptor inhibitors to test the sensitivity of uptake of the radiotracers to specific inhibitions. […] Following a 30-min incubation period, the radiotracers (e.g., FDG or FCH) were added (˜2 µCi/well) and the cells were incubated for 2 hr. The cells were washed three times with phosphate buffered saline solution, released from the plates by briefly incubating with 0.05% trypsin in DMEM, transferred to test tubes, and counted for F-18 radioactivity in a gamma counter. The amount of radioactivity in the cells was normalized by the dose administered to each well.
The present work studies the structure-activity relationships for purposes of optimization of the molecule for imaging prostate cancer. […] A number of structural analogs of choline were labeled as N-[^18F]fluoromethyl derivatives via the intermediate [^18F]fluorobromomethane (see Table 3). Uptake of the radiotracers was assessed in cultured PC-3 human prostate cancer cells and in a murine PC-3 xenograft model.

[2] = system: mice with PC-3 xenografts; settings: for tumor uptake: PC-3 xenograft
Method: Body weight and tumor volume were measured weekly and tumor volume (mm3) was calculated using the formula S2×L/2, where S and L represent the small and large diameters of the tumor, respectively.
A prescribed duration of time was allowed before procurement of heart, liver, lung, blood, kidney, bone (femur), brain (whole), prostate gland, tumor, bladder, and skeletal muscle. The tissues were weighed, and counted for ^18F in a gamma counter, then dissolved in Solvable (Dupont, Boston Mass.) and counted for ^14C in a liquid scintillation counter. For the bladder, the percentage of the injected dose in the urine was determined. For all other tissues, radiotracer uptake was calculated as: […]

[3] = system: patients with prostate cancer; experiment: PET imaging in patients with prostate cancer; settings: Example 11 patient, metastatic prostate cancer
Method: The distribution of FCH in PET imaging studies was evaluated in 14 patients with prostate cancer, 14 patients with breast cancer, and 5 patients with brain tumors. Imaging was performed using the Advance PET scanner (GE Medical Systems, Milwaukee, Wis.). […] In prostate cancer patients, a transmission scan of the pelvic region was obtained before administration of radiotracer. FCH (2.5-5 mCi) was administered intravenously, and dynamic imaging of the pelvis region was commenced for 20-30 min. During image reconstruction, the emission data in the pelvic region were corrected for photon attenuation using the transmission scan. Immediately following the dynamic scan, a whole-body emission scan was performed without transmission scanning for attenuation correction. The images were reconstructed using an Ordered Subset Expectation Maximum (OS-EM) algorithm. Regions-of-interest were drawn manually on the attenuation corrected images for evaluation of FCH kinetics in tissues. Standardized uptake values of FCH uptake in tissues were calculated using the attenuation-corrected images according to the equation: [formula]
Patient 2: Transmission and FCH emission scans of a person with hormone naive clinical stage T2 prostate cancer were commenced over the lower pelvis.
The same patient was scanned with FDG within the same week (FIG. 8).
Patient 4: A person with a history of clinical stage T3b prostate cancer treated by radical retropubic prostatectomy was diagnosed with metastatic disease by bone scan. FCH-PET imaging was performed before and after initiating androgen deprivation therapy. In the first study, whole-body emission scanning was started 5 min after injection, beginning at the pelvic region in order to image the pelvis and prostatic bed before arrival of urinary radioactivity. […] The patient was rescanned 2 weeks after initiating androgen deprivation therapy.
Patient 5: A person was initially diagnosed five years prior with locally advanced clinical stage T3NOMO prostate cancer and underwent radical prostatectomy followed by external beam radiation to the prostate bed. […] The patient was then treated with Zolex and Casodex.

[4] = molecular target: T1, yeast choline kinase (Saccharomyces cerevisiae, UniProt P20485); experiment: In vitro phosphorylation by yeast choline kinase; type: biochemical; settings: 1 μM choline; for In vitro phosphorylation: 25 mU/ml yeast choline kinase, 23° C., 10 min, n = 5
T1 sequence (P20485 1-582): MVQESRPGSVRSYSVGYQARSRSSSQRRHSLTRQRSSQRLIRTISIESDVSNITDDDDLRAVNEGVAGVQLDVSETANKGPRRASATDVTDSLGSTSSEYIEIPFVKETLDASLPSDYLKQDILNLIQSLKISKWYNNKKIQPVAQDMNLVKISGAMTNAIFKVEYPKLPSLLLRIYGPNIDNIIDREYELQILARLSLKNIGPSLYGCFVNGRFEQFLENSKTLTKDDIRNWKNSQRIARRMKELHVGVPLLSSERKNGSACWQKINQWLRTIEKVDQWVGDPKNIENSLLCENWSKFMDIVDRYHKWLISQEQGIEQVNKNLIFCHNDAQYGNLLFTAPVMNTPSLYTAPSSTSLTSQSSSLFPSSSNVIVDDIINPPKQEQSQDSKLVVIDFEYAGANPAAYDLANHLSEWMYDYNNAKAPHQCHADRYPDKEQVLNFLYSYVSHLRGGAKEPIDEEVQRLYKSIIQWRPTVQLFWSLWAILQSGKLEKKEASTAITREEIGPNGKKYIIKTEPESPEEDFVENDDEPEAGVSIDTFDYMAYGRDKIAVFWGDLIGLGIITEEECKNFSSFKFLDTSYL
Method: The test tube was gently agitated throughout the incubation period. The reaction was stopped by placing the tube in a boiling water bath for 2 min. To serve as controls, some samples were placed directly in the boiling water bath after addition of all substrates. […] The percentage of radioactivity converted to the phosphorylated form was calculated.

[5] = inhibitor HC-3 (hemicholinium-3, 5 mM)

C=CC[N+](C)(C[18F])CCO (stereo not shown) [Allyl]
Uptake by PC-3 cells [1, 5]: 0.11 ± 0.01 % dose/2 hr/10^5 cells plated | Uptake by PC-3 cells ([1]; inhibitor none): 4.45 ± 0.46 % dose/2 hr/10^5 cells plated

C[N+](C)(C[18F])CCCCO [Butanol]
Uptake by PC-3 cells [1]: 0.140 ± 0.042 % dose/2 hr/10^5 cells plated

CCCC[N+](C)(C[18F])CCO (stereo not shown) [Butyl]
Uptake by PC-3 cells ([1]; inhibitor none): 0.153 ± 0.021 % dose/2 hr/10^5 cells plated

C[N+](C[18F])(CCO)CCO [Diethanol]
Uptake by PC-3 cells ([1]; inhibitor none): 0.462 ± 0.083 % dose/2 hr/10^5 cells plated

CC[N+](CC)(C[18F])CCO [Diethyl]
Uptake by PC-3 cells ([1]; inhibitor none): 0.503 ± 0.091 % dose/2 hr/10^5 cells plated

CC[N+](C)(C[18F])CCCO (stereo not shown) [Ethyl-Prop.]
Uptake by PC-3 cells ([1]; inhibitor none): 0.285 ± 0.023 % dose/2 hr/10^5 cells plated

[2H]C([2H])(O)C[N+](C)(C)C[18F] [FDC]
Uptake by PC-3 cells ([1]; inhibitor none): 2.410 ± 0.144 % dose/2 hr/10^5 cells plated | Tumor:muscle ratio ([2]; 60 min after injection): highest | tumor:blood ratio ([2]; 60 min after injection): highest | SUV of osseous lesion (pubic ramus) [3]: 11.7

[2H]C([2H])(O)C[N+](C)(CC)C[18F] (stereo not shown) [FEDC]
Uptake by PC-3 cells ([1]; inhibitor none): 0.720 ± 0.065 % dose/2 hr/10^5 cells plated

CC[N+](C)(C[18F])CCO (stereo not shown) [FEtC, [^18F]fluoromethylethylcholine]
phosphorylation rate compared with CH [4]: equivalent to CH | In vitro phosphorylation [4]: 55.2 ± 6.6% | uptake in cultured PC-3 cells [1]: ~2 %/hr/100,000 cells plated | Uptake by PC-3 cancer cells, HC-3 [1]: 0.12 ± 0.02 % dose/2 hr/105 cells plated | accumulation by cultured PC-3 cells compared with other tracers [1]: higher than HARA-1 (p<0.05), but lower than FCH | Uptake by PC-3 cancer cells, Control [1]: 0.74 ± 0.04 % dose/2 hr/105 cells plated | Uptake by PC-3 cells [1, 5]: 0.122 ± 0.016 % dose/2 hr/10^5 cells plated | Uptake by PC-3 cells ([1]; inhibitor none): 0.741 ± 0.041 % dose/2 hr/10^5 cells plated | tumor uptake [2]: ~0.07 % dose kg/g

C[N+](C)(C[18F])CCCO [FHC, [^18F]fluorohomocholine]
uptake in cultured PC-3 cells [1]: ~2 %/hr/100,000 cells plated | Uptake by PC-3 cells ([1]; inhibitor none): 1.635 ± 0.306 % dose/2 hr/10^5 cells plated | tumor uptake [2]: ~0.07 % dose kg/g

C[N+](C)(CCO)CCC[18F] [FPC, [^18F]fluoropropylcholine]
phosphorylation rate, less than for FCH [4]: ~60% | In vitro phosphorylation [4]: 22.1 ± 3.1 % | Uptake by PC-3 cancer cells, HC-3 [1]: 0.76 ± 0.20 % dose/2 hr/105 cells plated | decrease in uptake by PC-3 cells with hemicholinium-3 (HC-3) ([1]; HC-3 versus control): 41% | accumulation by cultured PC-3 cells compared with other tracers [1]: not significantly different from that of FCH | Uptake by PC-3 cancer cells, Control [1]: 1.29 ± 0.28 % dose/2 hr/105 cells plated

C#CC[N+](C)(C[18F])CCO (stereo not shown) [FPP]
Uptake by PC-3 cells ([1]; inhibitor none): 7.90 ± 0.53 % dose/2 hr/10^5 cells plated

CCC[N+](C)(C[18F])CCO (stereo not shown) [FPrC]
uptake in cultured PC-3 cells [1]: ~2 %/hr/100,000 cells plated | Uptake by PC-3 cells [1, 5]: 0.062 ± 0.001 % dose/2 hr/10^5 cells plated | Uptake by PC-3 cells ([1]; inhibitor none): 1.877 ± 0.115 % dose/2 hr/10^5 cells plated | tumor uptake [2]: ~0.07 % dose kg/g

CC(C)C[N+](C)(C[18F])CCO (stereo not shown) [Isobutyl]
Uptake by PC-3 cells ([1]; inhibitor none): 2.74 ± 0.09 % dose/2 hr/10^5 cells plated

CCCCC[N+](C)(C[18F])CCO (stereo not shown) [Pentyl]
Uptake by PC-3 cells ([1]; inhibitor none): 0.073 ± 0.007 % dose/2 hr/10^5 cells plated

CCC[N+](C)(C[18F])CCCO (stereo not shown) [Propyl-prop.]
Uptake by PC-3 cells ([1]; inhibitor none): 0.234 ± 0.050 % dose/2 hr/10^5 cells plated

CCC(C)[N+](C)(C[18F])CCO (stereo not shown) [Sec-butyl]
Uptake by PC-3 cells ([1]; inhibitor none): 0.28 ± 0.01 % dose/2 hr/10^5 cells plated

CC(O)C[N+](C)(C)C[18F] (stereo not shown) [Tracer 1-methyl]
Uptake by PC-3 cells ([1]; inhibitor none): 0.202 ± 0.021 % dose/2 hr/10^5 cells plated

CC(CO)[N+](C)(C)C[18F] (stereo not shown) [Tracer 2-methyl]
Uptake by PC-3 cells ([1]; inhibitor none): 0.182 ± 0.016 % dose/2 hr/10^5 cells plated

C[N+](C[18F])(CCO)Cc1ccccc1 (stereo not shown) [benzyl]
Uptake by PC-3 cells ([1]; inhibitor none): 0.202 ± 0.009 % dose/2 hr/10^5 cells plated

OCC[N+]1(C[18F])CCCC1 [cyclic 5N]
Uptake by PC-3 cells ([1]; inhibitor none): 0.355 ± 0.028 % dose/2 hr/10^5 cells plated

OCC[N+]1(C[18F])CCOCC1 [cyclic 6NO]
Uptake by PC-3 cells ([1]; inhibitor none): 0.399 ± 0.014 % dose/2 hr/10^5 cells plated

OCC[N+]1(C[18F])CCCCC1 [cyclic 6N]
Uptake by PC-3 cells ([1]; inhibitor none): 0.144 ± 0.014 % dose/2 hr/10^5 cells plated

C[N+]1(C[18F])CCCC(O)C1 (stereo not shown) [cyclic N—OH]
Uptake by PC-3 cells ([1]; inhibitor none): 0.077 ± 0.011 % dose/2 hr/10^5 cells plated

[2H]C([2H])(O)CC[N+](C)(C)C[18F] [propanol - D]
Uptake by PC-3 cells [1]: 0.763 ± 0.065 % dose/2 hr/10^5 cells plated

[2H]C([2H])(O)C[N+](C)(C[18F])CCC (stereo not shown) [propyl - D]
Uptake by PC-3 cells ([1]; inhibitor none): 1.864 ± 0.307 % dose/2 hr/10^5 cells plated

OCC[N+](C[18F])(CCO)CCO [triethanol]
Uptake by PC-3 cells ([1]; inhibitor none): 0.170 ± 0.045 % dose/2 hr/10^5 cells plated
